Assay results as given in PMC11268729 (Journal of hepatology, 2023).
“Also recorded” adds a separate entry of the source. Blank lines part the entries; values can stand above or below the compound they belong to.

Tests used:
PaDLOCs [1] = assay: PaDLOC confocal imaging; format: cell-based, human; settings: for UMAP morphological clustering: PaDLOCs, CellProfiler cell-level features; for morphological deviation: monotherapy 500 nM
PHH PaDLOCs = assay: PHH liver-chip ALT/AST release and albumin production; format: cell-based, human; settings: PHH on chip; APAP and FIAU
PaDLOCs [2] = assay: PaDLOC; format: cell-based, human; settings: for albumin production: across 7 days; for ALT or AST release: monotherapy 500 nM
PaDLOCs [3] = assay: Metabolic turnover of CYP substrates in PaDLOCs; settings: PaDLOCs vs plate-cultured intact HLOs; slightly lower rates than PHHs
PaDLOCs [4] = assay: scRNA-seq differential expression in hepatocytes of drug-treated PaDLOCs; format: cell-based, human; settings: fialuridine 10 μM, tenofovir 500 nM; for KCNQ10T1 expression / RPS10 expression: compared to control; for DGAT1 expression: tenofovir-inarigivir 250 + 250 nM
72.3-derived HLOs = assay: Morphological cell profiling; format: cell-based, human; settings: for phenotypic cluster (UMAP/HDBScan): cells treated at respective IC50, 72.3-derived HLOs
dispersed HLOs = assay: Dispersed HLOs in 384-well plates, cell viability counts by high-content imaging; format: cell-based, human; settings: for cytotoxicity: monotherapies up to concentration of 100 μM, 120 hrs
patients = settings: monotherapy, two clinical trials for HBV; cited from earlier work
[5] = in vivo; cited from earlier work
[6] = single agents 500 nM, combination 250 + 250 nM

albumin production (PaDLOCs [2]; APAP 100 μM, FIAU 10 μM): diminished
SMILES: CC(=O)Nc1ccc(O)cc1 [APAP, acetaminophen]
UMAP morphological clustering (PaDLOCs [1]): unique cluster
ALT/AST release and reduced albumin production (PHH PaDLOCs): not significant
metabolic turnover rate (PaDLOCs [3]): increased rates compared to plate-cultured intact HLOs

albumin production (PaDLOCs [2]; APAP 100 μM, FIAU 10 μM): diminished
SMILES: O=c1[nH]c(=O)n([C@@H]2O[C@H](CO)[C@@H](O)[C@@H]2F)cc1I [FIAU, fialuridine]
confocal phenotype (CellMask, lipid droplets) (PaDLOCs [1]; APAP 100 μM, FIAU 10 μM, day 7 of treatment): high lipid content and a reduction of CellMask staining
KCNQ10T1 expression (PaDLOCs [4]): overexpression
RPS10 expression (PaDLOCs [4]): suppressed expression
GSTP1 expression (PaDLOCs [4]): decreased expression
DGAT1 expression (PaDLOCs [4]): downregulated
ALT/AST release and reduced albumin production (PHH PaDLOCs): not significant
multidimensional perturbation of cells (72.3-derived HLOs; sub-cytotoxic concentrations, Fig. S5 B-C): diminished mitochondrial mass and lipid accumulation

SMILES: Oc1ncnc2[nH]ncc12 [allopurinol]
phenotypic cluster (UMAP/HDBScan) (72.3-derived HLOs): Cluster α; also recorded: Cluster γ

SMILES: O=P1(N(CCCl)CCCl)NCCCO1 (stereo not shown) [cyclophosphamide]
metabolic turnover rate (PaDLOCs [3]): increased rates compared to plate-cultured intact HLOs

SMILES: CO[C@@H]1[C@H](OP(=O)(OC[C@H]2O[C@@H](n3cnc4c(N)ncnc43)C[C@@H]2O)SCOC(=O)OC(C)C)[C@@H](CO)O[C@H]1n1ccc(=O)[nH]c1=O (stereo partly shown) [inarigivir soproxil]
UMAP morphological clustering (PaDLOCs [1]): clustered with DMSO control
morphological deviation (PaDLOCs [1]): no morphological deviation from DMSO-treated control
cytotoxicity (dispersed HLOs): negligible cytotoxicity
ALT or AST release (PaDLOCs [2]): did not increase ALT or AST release
albumin production (PaDLOCs [2]; [6]): no effect was observed
toxicity in clinical trials (patients): no clear signs of toxicity

SMILES: Cc1ccnc2c1NC(=O)c1cccnc1N2C1CC1 [nevirapine]
IC50 relative to reported Cmax in patients (dispersed HLOs; 72.3 derived HLOs, Cmax ref 53): over double that of reported Cmax
phenotypic cluster (UMAP/HDBScan) (72.3-derived HLOs): Cluster γ

SMILES: CO[C@H]1/C=C/O[C@@]2(C)Oc3c(C)c(O)c4c(O)c(c(/C=N/N5CCN(C)CC5)c(O)c4c3C2=O)NC(=O)/C(C)=C\C=C\[C@H](C)[C@H](O)[C@@H](C)[C@@H](O)[C@@H](C)[C@H](OC(C)=O)[C@@H]1C [rifampin]
phenotypic cluster (UMAP/HDBScan) (72.3-derived HLOs): Cluster γ

albumin production (PaDLOCs [2]; [6]): no effect was observed
SMILES: C[C@H](Cn1cnc2c(N)ncnc21)OCP(=O)(O)O [tenofovir]
Cmax [5]: ~500 nM
UMAP morphological clustering (PaDLOCs [1]): clustered with DMSO control
morphological deviation (PaDLOCs [1]): no morphological deviation from DMSO-treated control
cytotoxicity (dispersed HLOs): negligible cytotoxicity
KCNQ10T1 expression (PaDLOCs [4]): overexpression
RPS10 expression (PaDLOCs [4]): suppressed expression
GSTP1 expression (PaDLOCs [4]): decreased expression
DGAT1 expression (PaDLOCs [4]): downregulated
ALT or AST release (PaDLOCs [2]): did not increase ALT or AST release

SMILES: Nc1nc2nc[nH]c2c(=S)[nH]1 [thioguanine]
phenotypic cluster (UMAP/HDBScan) (72.3-derived HLOs): Cluster α
